Measurements: US12503436B2, “Compounds and compositions for treating conditions associated with STING activity” (NOVARTIS PHARMA AG, priority 2021, dated 2025)

Biological target: STING (Homo sapiens, UniProt Q86WV6, G230A/H232R/R293Q/R71H)
Assay: STING reporter assay in THP1-Dual KO-IFNAR2 cells (2′3′cGAMP stimulation, luciferase reporter)
Assay type: cell-based
Settings: 15 μM 2′3′cGAMP stimulation, 24 h, read-out: Pharmaron, THP1_IFNAR2 STING 24 h Luci Normalized: GeoMean EC50
How it was run: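 EC50 from secreted luciferase (QUANTI-Luc Plus luminescence of supernatant) after 24 h at 37 °C, 5% CO2. Cells: THP1-Dual KO-IFNAR2, treated with compound (0.0017-100 μM final) plus lipofected 2′3′cGAMP at 15 μM final.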

STING, sequence (Q86WV6 whole entry R71H/G230A/H232R/R293Q): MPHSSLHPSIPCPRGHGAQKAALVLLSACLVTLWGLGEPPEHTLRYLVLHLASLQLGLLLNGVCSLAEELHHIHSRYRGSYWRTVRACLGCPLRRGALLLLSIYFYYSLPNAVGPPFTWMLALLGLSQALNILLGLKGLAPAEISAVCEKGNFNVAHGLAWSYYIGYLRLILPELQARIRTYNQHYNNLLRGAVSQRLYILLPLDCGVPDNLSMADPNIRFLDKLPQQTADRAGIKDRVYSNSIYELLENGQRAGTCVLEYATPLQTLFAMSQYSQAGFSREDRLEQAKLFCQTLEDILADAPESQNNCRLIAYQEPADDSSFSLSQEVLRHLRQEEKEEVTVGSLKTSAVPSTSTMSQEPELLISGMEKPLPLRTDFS

SMILES | EC50
CC(=O)Nc1c[nH]c2ccc(CCOc3cccc(C(F)(F)F)c3)cc12 [Compound 231, N-(5-(2-(3-(trifluoromethyl)phenoxy)ethyl)-1H-indol-3-yl)acetamide] | 200 to 1000 nM
N#C[C@@H]1C[C@@H]1C(=O)Nc1c[nH]c2ccc(OCCc3ccc(C(F)(F)F)cc3)cc12 [Compound 188, (1S,2R)-2-cyano-N-(5-(4-(trifluoromethyl)phenethoxy)-1H-indol-3-yl)cyclopropane-1-carboxamide] | 200 to 1000 nM
CC1(C(=O)Nc2c[nH]c3ccc(O[C@H]4C[C@@H](c5ccc(C(F)(F)F)cc5)C4)cc23)CCC1 [Compound 360, 1-methyl-N-(5-(cis-3-(4-(trifluoromethyl)phenyl)cyclobutoxy)-1H-indol-3-yl)cyclobutane-1-carboxamide] | 200 to 1000 nM
CC(=O)Nc1c[nH]c2ccc(OCCc3cnc(N4CCN(CC(F)(F)F)CC4)c(F)c3)cc12 [Compound 253, N-(5-(2-(5-fluoro-6-(4-(2,2,2-trifluoroethyl)piperazin-1-yl)pyridin-3-yl)ethoxy)-1H-indol-3-yl)acetamide] | 1000 to 5000 nM
O=C(Nc1c[nH]c2ccc(/C=C/c3ccc(C(F)(F)F)cc3)cc12)C1CCC1 [Compound 144, (E)-N-(5-(4-(trifluoromethyl)styryl)-1H-indol-3-yl)cyclobutanecarboxamide] | 5000 to 100000 nM
CC1(C(=O)Nc2c[nH]c3ccc(O[C@H]4C[C@H](c5ccc(C(F)(F)F)cc5)C4)cc23)CCC1 [Compound 564, 1-methyl-N-(5-(trans-3-(4-(trifluoromethyl)phenyl)cyclobutoxy)-1H-indol-3-yl)cyclobutane-1-carboxamide] | 40 to 200 nM
C[C@H]1OC[C@H]1C(=O)Nc1c[nH]c2ccc(O[C@H]3C[C@H](c4ccc(C(F)(F)F)cc4)C3)cc12 [Compound 424, (2R,3R)-2-methyl-N-(5-(trans-3-(4-(trifluoromethyl)phenyl)cyclobutoxy)-1H-indol-3-yl)oxetane-3-carboxamide] | 200 to 1000 nM
CC(=O)Nc1c[nH]c2ccc(CCOc3ccc(C4CCOCC4)cc3)cc12 [Compound 226, N-(5-(2-(4-(tetrahydro-2H-pyran-4-yl)phenoxy)ethyl)-1H-indol-3-yl)acetamide] | 1000 to 5000 nM
O=C(Nc1c[nH]c2ccc(CC(O)Cc3ccc(C(F)(F)F)cc3)cc12)C1CC1 (single isomer, unassigned) [Compound 200, N-(5-(2-hydroxy-3-(4-(trifluoromethyl)phenyl)propyl)-1H-indol-3-yl)cyclopropanecarboxamide] | 200 to 1000 nM
CO[C@H]1C[C@@H](C(=O)Nc2c[nH]c3ccc(CCOc4ccc(C(F)(F)F)cc4)cc23)C1 [Compound 221, cis-3-methoxy-N-(5-(2-(4-(trifluoromethyl)phenoxy)ethyl)-1H-indol-3-yl)cyclobutane-1-carboxamide] | 40 to 200 nM
CC1(C(=O)Nc2c[nH]c3ccc(O[C@H]4C[C@H](c5ccc(C(F)(F)F)cc5)C4)cc23)CNC1 [Compound 567, 3-methyl-N-(5-(trans-3-(4-(trifluoromethyl)phenyl)cyclobutoxy)-1H-indol-3-yl)azetidine-3-carboxamide] | 1000 to 5000 nM
O=C(Nc1c[nH]c2ccc(CC(O)Cc3ccc(C(F)(F)F)cc3)cc12)C1CC1 (centres unmarked) [Compound 240, N-(5-(2-hydroxy-3-(4-(trifluoromethyl)phenyl)propyl)-1H-indol-3-yl)cyclopropanecarboxamide] | 200 to 1000 nM
CC(=O)Nc1c[nH]c2ccc(CCOc3ccc(C(F)(F)F)cn3)cc12 [Compound 215, N-(5-(2-((5-(trifluoromethyl)pyridin-2-yl)oxy)ethyl)-1H-indol-3-yl)acetamide] | 200 to 1000 nM
O=C(Nc1c[nH]c2ccc(O[C@H]3C[C@@H](c4ccc(C(F)(F)F)cc4)C3)cc12)[C@H]1C[C@@H](O)C1 [Compound 337, cis-3-hydroxy-N-(5-(cis-3-(4-(trifluoromethyl)phenyl)cyclobutoxy)-1H-indol-3-yl)cyclobutane-1-carboxamide] | 200 to 1000 nM
CC(=O)Nc1c[nH]c2ccc(OCCc3ccc(C(F)(F)F)cc3)cc12 [Compound 136, N-(5-(4-(trifluoromethyl)phenethoxy)-1H-indol-3-yl)acetamide] | 40 to 200 nM
O=C(Nc1c[nH]c2ccc(OCCc3ccc(C(F)(F)F)nc3)cc12)C1CN(CC(F)(F)F)C1 [Compound 195, 1-(2,2,2-trifluoroethyl)-N-(5-(2-(6-(trifluoromethyl)pyridin-3-yl)ethoxy)-1H-indol-3-yl)azetidine-3-carboxamide] | 200 to 1000 nM
CC(C)(O)CC(=O)Nc1c[nH]c2ccc(OCCC3CCN(CC(F)(F)F)CC3)cc12 [Compound 118, 3-hydroxy-3-methyl-N-(5-(2-(1-(2,2,2-trifluoroethyl)piperidin-4-yl)ethoxy)-1H-indol-3-yl)butanamide] | 200 to 1000 nM
CO[C@H]1C[C@H](C(=O)Nc2c[nH]c3ccc(CCOc4ccc(C(F)(F)F)cc4)cc23)C1 [Compound 220, trans-3-methoxy-N-(5-(2-(4-(trifluoromethyl)phenoxy)ethyl)-1H-indol-3-yl)cyclobutane-1-carboxamide] | 40 to 200 nM
CC(=O)Nc1c[nH]c2ccc(O[C@H]3C[C@@H](c4ccc(C(F)(F)F)cc4)C3)cc12 [Compound 102, N-(5-(cis-3-(4-(trifluoromethyl)phenyl)cyclobutoxy)-1H-indol-3-yl)acetamide] | 40 to 200 nM
CC(=O)Nc1c[nH]c2ccc(OCC(C)(C)C3CCN(CC(F)(F)F)CC3)cc12 [Compound 108, N-(5-(2-methyl-2-(1-(2,2,2-trifluoroethyl)piperidin-4-yl)propoxy)-1H-indol-3-yl)acetamide] | 5000 to 100000 nM

Continued, values first:

EC50 | SMILES
1000 to 5000 nM | CC1(C(=O)Nc2c[nH]c3ccc(CC(O)Cc4ccc(C(F)(F)F)cn4)cc23)CC1 (centres unmarked) [Compound 540, N-(5-(2-hydroxy-3-(5-(trifluoromethyl)pyridin-2-yl)propyl)-1H-indol-3-yl)-1-methylcyclopropane-1-carboxamide]
5000 to 100000 nM | CC(=O)Nc1c[nH]c2c(F)cc(OCCC3CCN(CC(F)(F)F)CC3)cc12 [Compound 277, N-(7-fluoro-5-(2-(1-(2,2,2-trifluoroethyl)piperidin-4-yl)ethoxy)-1H-indol-3-yl)acetamide]
1000 to 5000 nM | COC(=O)C(Cc1ccc(C(F)(F)F)cc1)Cc1ccc2[nH]cc(NC(C)=O)c2c1 (centres unmarked) [Compound 527, methyl 3-(3-acetamido-1H-indol-5-yl)-2-(4-(trifluoromethyl)benzyl)propanoate]
200 to 1000 nM | CC1(C)CC(C(=O)Nc2c[nH]c3ccc(OCC[C@@H]4C[C@@H]5CN(CC(F)(F)F)C[C@@H]5C4)cc23)C1 [Compound 346, 3,3-dimethyl-N-(5-(2-((3aR,5r,6aS)-2-(2,2,2-trifluoroethyl)octahydrocyclopenta[c]pyrrol-5-yl)ethoxy)-1H-indol-3-yl)cyclobutane-1-carboxamide]
1000 to 5000 nM | C[C@@H]1OC[C@H]1C(=O)Nc1c[nH]c2ccc(OCC[C@@H]3C[C@@H]4CN(CC(F)(F)F)C[C@@H]4C3)cc12 [Compound 509, (2S,3R)-2-methyl-N-(5-(2-((3aR,5r,6aS)-2-(2,2,2-trifluoroethyl)octahydrocyclopenta[c]pyrrol-5-yl)ethoxy)-1H-indol-3-yl)oxetane-3-carboxamide]
200 to 1000 nM | CC(C)(C)C(=O)Nc1c[nH]c2ccc(CCOc3ccc(C(F)(F)F)cc3)cc12 [Compound 389, N-(5-(2-(4-(trifluoromethyl)phenoxy)ethyl)-1H-indol-3-yl)pivalamide]
200 to 1000 nM | CC(=O)Nc1c[nH]c2ccc(CCOc3ccc(Cl)cc3C(F)(F)F)cc12 [Compound 450, N-(5-{2-[4-chloro-2-(trifluoromethyl)phenoxy]ethyl}-1H-indol-3-yl)acetamide]
1000 to 5000 nM | CC(=O)Nc1c[nH]c2ccc(OCCc3ccc(C(F)(F)F)cc3)c(Br)c12 [Compound 350, N-(4-bromo-5-(4-(trifluoromethyl)phenethoxy)-1H-indol-3-yl)acetamide]
200 to 1000 nM | C[C@]1(C(=O)Nc2c[nH]c3ccc(OCC[C@@H]4C[C@@H]5CN(CC(F)(F)F)C[C@@H]5C4)cc23)C[C@H](CO)C1 [Compound 512, (1r,3R)-3-(hydroxymethyl)-1-methyl-N-(5-(2-((3aR,5r,6aS)-2-(2,2,2-trifluoroethyl)octahydrocyclopenta[c]pyrrol-5-yl)ethoxy)-1H-indol-3-yl)cyclobutane-1-carboxamide]
200 to 1000 nM | CC(=O)Nc1c[nH]c2ccc(OCCC34CC(C(F)(F)F)(C3)C4)cc12 [Compound 474, N-(5-(2-(3-(trifluoromethyl)bicyclo[1.1.1]pentan-1-yl)ethoxy)-1H-indol-3-yl)acetamide]
200 to 1000 nM | CC[C@H](O)C(=O)Nc1c[nH]c2ccc(OCC[C@@H]3C[C@@H]4CN(CC(F)(F)F)C[C@@H]4C3)cc12 [Compound 521, (S)-2-hydroxy-N-(5-(2-((3aR,5r,6aS)-2-(2,2,2-trifluoroethyl)octahydrocyclopenta[c]pyrrol-5-yl)ethoxy)-1H-indol-3-yl)butanamide]
40 to 200 nM | C[C@]1(C(=O)Nc2c[nH]c3ccc(OCCc4ccc(C(F)(F)F)cc4)cc23)C[C@H](O)C1 [Compound 446, trans-3-hydroxy-1-methyl-N-(5-(4-(trifluoromethyl)phenethoxy)-1H-indol-3-yl)cyclobutane-1-carboxamide]
1000 to 5000 nM | CC(=O)Nc1c[nH]c2c(F)cc(COCc3ccc(C(F)(F)F)cc3)cc12 [Compound 276, N-(7-fluoro-5-(((4-(trifluoromethyl)benzyl)oxy)methyl)-1H-indol-3-yl)acetamide]
200 to 1000 nM | N#CC1(C(=O)Nc2c[nH]c3ccc(OCc4ccc(C(F)(F)F)cc4)cc23)CC1 [Compound 586, 1-cyano-N-(5-((4-(trifluoromethyl)benzyl)oxy)-1H-indol-3-yl)cyclopropane-1-carboxamide]
200 to 1000 nM | C[C@H]1C[C@H](C(=O)Nc2c[nH]c3ccc(OCc4ccc(C(F)(F)F)cc4)cc23)C1 [Compound 320, trans-3-methyl-N-(5-((4-(trifluoromethyl)benzyl)oxy)-1H-indol-3-yl)cyclobutane-1-carboxamide]
